Source: ChEMBL document CHEMBL3880421, “Indazole compounds and pharmaceutical compositions for inhibiting protein kinases, and methods for their use” (2003)

Tests used:
[1] = Antiproliferative activity against VEGF-stimulated HUVEC cells assessed as reduction in cell viability at 2 nM preincubated for 1 hr followed by addition of VEGF measured after 72 hrs by MTT assay; assay type: functional; conditions: Homo sapiens
[2] = Antiproliferative activity against VEGF-stimulated HUVEC cells assessed as reduction in cell viability at 0.5 nM preincubated for 1 hr followed by addition of VEGF measured after 72 hrs by MTT assay; assay type: functional; conditions: Homo sapiens

Row | SMILES | inhibition at 0.002 µM [1] [%] | inhibition at 0.0005 µM [2] [%]
1 | CC(C)C(C)NC(=O)c1ccccc1Nc1ccc2c(/C=C/c3ccccn3)n[nH]c2c1 (centres undefined) | 55 | 19
2 | CN(C)CCCNC(=O)c1ccccc1Nc1ccc2c(/C=C/c3ccccn3)n[nH]c2c1 | 1 | 6
3 | CCCCCCCNC(=O)c1ccccc1Nc1ccc2c(/C=C/c3ccccn3)n[nH]c2c1 | 34 | 9
4 | CC(C)CCCC(C)NC(=O)c1ccccc1Nc1ccc2c(/C=C/c3ccccn3)n[nH]c2c1 (centres undefined) | 32 | 20
5 | Cc1cc(NC(=O)c2ccccc2Nc2ccc3c(/C=C/c4ccccn4)n[nH]c3c2)no1 | 14 | 28
6 | O=C(NCCOCCO)c1ccccc1Nc1ccc2c(/C=C/c3ccccn3)n[nH]c2c1 | 24 | 10
7 | CCCC(C)NC(=O)c1ccccc1Nc1ccc2c(/C=C/c3ccccn3)n[nH]c2c1 (centres undefined) | 92 | 29
8 | O=C(NC1CCN(Cc2ccccc2)CC1)c1ccccc1Nc1ccc2c(/C=C/c3ccccn3)n[nH]c2c1 | 19 | 44
9 | NC(=O)c1ccccc1Nc1ccc2c(/C=C/c3ccccn3)n[nH]c2c1 | 30 | 9
10 | CC(C)C(CO)NC(=O)c1ccccc1Nc1ccc2c(/C=C/c3ccccn3)n[nH]c2c1 (centres undefined) | -5 | 21
11 | O=C(NNC(=O)c1ccccc1Nc1ccc2c(/C=C/c3ccccn3)n[nH]c2c1)c1ccco1 | 71 | 26
12 | CCN(CC)CCCCNC(=O)c1ccccc1Nc1ccc2c(/C=C/c3ccccn3)n[nH]c2c1 | 36 | 22
13 | NC(=O)CNC(=O)c1ccccc1Nc1ccc2c(/C=C/c3ccccn3)n[nH]c2c1 | 4 | 6
14 | CC(O)CNC(=O)c1ccccc1Nc1ccc2c(/C=C/c3ccccn3)n[nH]c2c1 (centres undefined) | 2 | 38
15 | CCN(CCNC(=O)c1ccccc1Nc1ccc2c(/C=C/c3ccccn3)n[nH]c2c1)c1cccc(C)c1 | 1 | 17
16 | O=C(NCCN1CCOCC1)c1ccccc1Nc1ccc2c(/C=C/c3ccccn3)n[nH]c2c1 | 22 | 28
17 | O=C(NO)c1ccccc1Nc1ccc2c(/C=C/c3ccccn3)n[nH]c2c1 | 25 | 7
18 | Cc1cc(NC(=O)c2ccccc2Nc2ccc3c(/C=C/c4ccccn4)n[nH]c3c2)on1 | 31 | 26
19 | CCCCCCCCNC(=O)c1ccccc1Nc1ccc2c(/C=C/c3ccccn3)n[nH]c2c1 | 16 | 26

Row | SMILES | inhibition at 0.002 µM [1] [%] | inhibition at 0.0005 µM [2] [%]
20 | CCCCCCNC(=O)c1ccccc1Nc1ccc2c(/C=C/c3ccccn3)n[nH]c2c1 | 90 | 21
21 | CSCCCNC(=O)c1ccccc1Nc1ccc2c(/C=C/c3ccccn3)n[nH]c2c1 | 100 | 44
22 | NS(=O)(=O)c1ccc(CNC(=O)c2ccccc2Nc2ccc3c(/C=C/c4ccccn4)n[nH]c3c2)cc1 | 13 | 1
23 | N#CCCNNC(=O)c1ccccc1Nc1ccc2c(/C=C/c3ccccn3)n[nH]c2c1 | 5 | 44
24 | O=C(NCCCCc1ccccc1)c1ccccc1Nc1ccc2c(/C=C/c3ccccn3)n[nH]c2c1 | 67 | 51
25 | O=C(NN1CCCC1)c1ccccc1Nc1ccc2c(/C=C/c3ccccn3)n[nH]c2c1 | 23 | 17
26 | O=C(NCP(=O)(O)O)c1ccccc1Nc1ccc2c(/C=C/c3ccccn3)n[nH]c2c1 | 6 | 32
27 | O=C(Nc1nc[nH]n1)c1ccccc1Nc1ccc2c(/C=C/c3ccccn3)n[nH]c2c1 | 22 | 19
28 | O=C(NCCCN1CCCCC1)c1ccccc1Nc1ccc2c(/C=C/c3ccccn3)n[nH]c2c1 | 7 | 16
29 | Nc1ccc(CNC(=O)c2ccccc2Nc2ccc3c(/C=C/c4ccccn4)n[nH]c3c2)cc1 | 88 | 45
30 | Cc1ccc(CNC(=O)c2ccccc2Nc2ccc3c(/C=C/c4ccccn4)n[nH]c3c2)cc1 | 92 | 20
31 | O=C(Nc1nncs1)c1ccccc1Nc1ccc2c(/C=C/c3ccccn3)n[nH]c2c1 | 28 | 44
32 | O=C(Nc1nnn[nH]1)c1ccccc1Nc1ccc2c(/C=C/c3ccccn3)n[nH]c2c1 | 18 to 64 | 21 to 39
33 | CC(C)CCNC(=O)c1ccccc1Nc1ccc2c(/C=C/c3ccccn3)n[nH]c2c1 | 47 to 55 | 14 to 47
34 | COC[C@H]1CCCN1NC(=O)c1ccccc1Nc1ccc2c(/C=C/c3ccccn3)n[nH]c2c1 | 11 | 18
35 | CC(C)N(CCNC(=O)c1ccccc1Nc1ccc2c(/C=C/c3ccccn3)n[nH]c2c1)C(C)C | 15 | 37
36 | CCN1CCC[C@@H]1CNC(=O)c1ccccc1Nc1ccc2c(/C=C/c3ccccn3)n[nH]c2c1 | 37 | 8
37 | Cc1cc(C(=O)NNC(=O)c2ccccc2Nc2ccc3c(/C=C/c4ccccn4)n[nH]c3c2)[nH]n1 | 39 | 26
38 | COC(=O)NNC(=O)c1ccccc1Nc1ccc2c(/C=C/c3ccccn3)n[nH]c2c1 | 21 | 8

Row | SMILES | inhibition at 0.002 µM [1] [%] | inhibition at 0.0005 µM [2] [%]
39 | CC(C)[C@H](CO)NC(=O)c1ccccc1Nc1ccc2c(/C=C/c3ccccn3)n[nH]c2c1 | -4 | 47
40 | CN1CCN(CCCNC(=O)c2ccccc2Nc2ccc3c(/C=C/c4ccccn4)n[nH]c3c2)CC1 | 4 | 0
41 | CN(C)CC(=O)NNC(=O)c1ccccc1Nc1ccc2c(/C=C/c3ccccn3)n[nH]c2c1 | 16 | 41
42 | O=C(NCC1(O)CCCCC1)c1ccccc1Nc1ccc2c(/C=C/c3ccccn3)n[nH]c2c1 | -19 | 26
43 | CC(C)C(NC(=O)c1ccccc1Nc1ccc2c(/C=C/c3ccccn3)n[nH]c2c1)C(C)C | -2 | 18
44 | CCN1CCCC1CNC(=O)c1ccccc1Nc1ccc2c(/C=C/c3ccccn3)n[nH]c2c1 (centres undefined) | 5 | 18
45 | O=C(NCc1cccc(F)c1)c1ccccc1Nc1ccc2c(/C=C/c3ccccn3)n[nH]c2c1 | 95 | 81
46 | CCCCC(=O)NNC(=O)c1ccccc1Nc1ccc2c(/C=C/c3ccccn3)n[nH]c2c1 | 94 | 40
47 | O=C(NN1CCN(CCO)CC1)c1ccccc1Nc1ccc2c(/C=C/c3ccccn3)n[nH]c2c1 | 25 | 25
48 | CC(C)c1ccc(CNC(=O)c2ccccc2Nc2ccc3c(/C=C/c4ccccn4)n[nH]c3c2)cc1 | 51 | 23
49 | O=C(NCCN(CCO)CCO)c1ccccc1Nc1ccc2c(/C=C/c3ccccn3)n[nH]c2c1 | 23 | 10
50 | O=C(NC1OCCO1)c1ccccc1Nc1ccc2c(/C=C/c3ccccn3)n[nH]c2c1 | 63 | 35
51 | CC(C)CNC(=O)c1ccccc1Nc1ccc2c(/C=C/c3ccccn3)n[nH]c2c1 | 29 to 36 | 4 to 31
52 | O=C(NCC1CC1)c1ccccc1Nc1ccc2c(/C=C/c3ccccn3)n[nH]c2c1 | 53 to 69 | 25 to 35
53 | CC(CNC(=O)c1ccccc1Nc1ccc2c(/C=C/c3ccccn3)n[nH]c2c1)N(C)C (centres undefined) | 1 | -9
54 | Cc1cc(NNC(=O)c2ccccc2Nc2ccc3c(/C=C/c4ccccn4)n[nH]c3c2)nc(C)n1 | 35 | 32
55 | CCN(CC)CCCNC(=O)c1ccccc1Nc1ccc2c(/C=C/c3ccccn3)n[nH]c2c1 | -1 | 31
56 | CN(C)c1ccc(CNC(=O)c2ccccc2Nc2ccc3c(/C=C/c4ccccn4)n[nH]c3c2)cc1 | 24 | 32
57 | O=C(NCCc1c[nH]cn1)c1ccccc1Nc1ccc2c(/C=C/c3ccccn3)n[nH]c2c1 | -32 | 23
